Experimental data reported in US6653455B1, “Crystallization of doxorubicin hydrochloride” (Mercian Corporation, priority 1998, dated 2003).
Where a name gives a salt, the structure may show the parent alone.

Experiments:
[1] = Hygroscopicity, cup method (weight change); type: physicochemical; conditions: weight-increasing rate, 25° C., 50 to 60% RH, 15 minutes; crystals dried at 40° C. under vacuum; hydrochloride
Method: Determined by the following cup method. To be specific, about 15 to 20 mg of the sample was put in a cylindrical cup having a diameter of 6 mm and a depth of 6 mm and left standing at a fixed temperature (25° C.) and relative humidity (50 to 60% RH) for 15 minutes to measure a weight change, whereby the hygroscopicity was evaluated.
In the following respective examples, a weight-increasing rate of 0.40% or more is shown by an evaluation criterion that the hygroscopicity is large (−); a weight-increasing rate of 0.20% or more and less than 0.40% is shown by an evaluation criterion that the hygroscopicity is ;intermediate (±); and a weight-increasing rate of less than 0.20% is shown by an evaluation criterion that the hygroscopicity is small: (+).

[2] = Average particle diameter, microscopic method (Heywood circle-corresponding diameter); type: physicochemical; conditions: 10 typical crystals on photograph, hydrochloride
Excerpt: The average particle diameter is shown by a diameter of a circle having the same area as an injected area of the particle, a so-called Heywood diameter (circle-corresponding diameter) according to a microscopic method (injected image). A small amount of the crystals was put on a slide glass, and 1 to 2 drops of a hydrophilic surfactant (sesquioleic acid sorbitan) were fallen thereon to disperse them. It was photographed by means of a polarization microscope (photographing lens: 3.3 magnifications, objective lens: 20 magnifications) equipped with a photographing device. Optional 10 pieces of the typical crystals were selected on the photograph to measure a long diameter and a short diameter thereof An (projected) area of the particle was shown by long diameter×short diameter, and the particle diameter was shown by a diameter of a circle having the same area as that obtained above.

Compound	Average particle diameter [2] [μm]	Hygroscopicity [1]
COc1cccc2c1C(=O)c1c(O)c3c(c(O)c1C2=O)C[C@@](O)(C(=O)CO)C[C@@H]3O[C@H]1C[C@H](N)[C@H](O)[C@H](C)O1 [Example 4, doxorubicin hydrochloride]	<4	− (a weight-increasing rate of 0.40% or more is shown by an evaluation criterion that the hygroscopicity is large (−))
COc1cccc2c1C(=O)c1c(O)c3c(c(O)c1C2=O)C[C@@](O)(C(=O)CO)C[C@@H]3O[C@H]1C[C@H](N)[C@H](O)[C@H](C)O1 [Example 13, doxorubicin hydrochloride]	<4	± (a weight-increasing rate of 0.20% or more and less than 0.40% is shown by an evaluation criterion that the hygroscopicity is ;intermediate (±))
COc1cccc2c1C(=O)c1c(O)c3c(c(O)c1C2=O)C[C@@](O)(C(=O)CO)C[C@@H]3O[C@H]1C[C@H](N)[C@H](O)[C@H](C)O1 [Example 16, doxorubicin hydrochloride]	<4	± (a weight-increasing rate of 0.20% or more and less than 0.40% is shown by an evaluation criterion that the hygroscopicity is ;intermediate (±))
COc1cccc2c1C(=O)c1c(O)c3c(c(O)c1C2=O)C[C@@](O)(C(=O)CO)C[C@@H]3O[C@H]1C[C@H](N)[C@H](O)[C@H](C)O1 [Example 19, doxorubicin hydrochloride]	17	± (a weight-increasing rate of 0.20% or more and less than 0.40% is shown by an evaluation criterion that the hygroscopicity is ;intermediate (±))
COc1cccc2c1C(=O)c1c(O)c3c(c(O)c1C2=O)C[C@@](O)(C(=O)CO)C[C@@H]3O[C@H]1C[C@H](N)[C@H](O)[C@H](C)O1 [Example 20, doxorubicin hydrochloride]	7	+ (a weight-increasing rate of less than 0.20% is shown by an evaluation criterion that the hygroscopicity is small: (+))
COc1cccc2c1C(=O)c1c(O)c3c(c(O)c1C2=O)C[C@@](O)(C(=O)CO)C[C@@H]3O[C@H]1C[C@H](N)[C@H](O)[C@H](C)O1 [Example 21, doxorubicin hydrochloride]	54	+ (a weight-increasing rate of less than 0.20% is shown by an evaluation criterion that the hygroscopicity is small: (+))
COc1cccc2c1C(=O)c1c(O)c3c(c(O)c1C2=O)C[C@@](O)(C(=O)CO)C[C@@H]3O[C@H]1C[C@H](N)[C@H](O)[C@H](C)O1 [Example 22, doxorubicin hydrochloride]	47	+ (a weight-increasing rate of less than 0.20% is shown by an evaluation criterion that the hygroscopicity is small: (+))
COc1cccc2c1C(=O)c1c(O)c3c(c(O)c1C2=O)C[C@@](O)(C(=O)CO)C[C@@H]3O[C@H]1C[C@H](N)[C@H](O)[C@H](C)O1 [Example 31, doxorubicin hydrochloride]		+ (a weight-increasing rate of less than 0.20% is shown by an evaluation criterion that the hygroscopicity is small: (+))
COc1cccc2c1C(=O)c1c(O)c3c(c(O)c1C2=O)C[C@@](O)(C(=O)CO)C[C@@H]3O[C@H]1C[C@H](N)[C@H](O)[C@H](C)O1 [Example 36, doxorubicin hydrochloride]		± (a weight-increasing rate of 0.20% or more and less than 0.40% is shown by an evaluation criterion that the hygroscopicity is ;intermediate (±))
COc1cccc2c1C(=O)c1c(O)c3c(c(O)c1C2=O)C[C@@](O)(C(=O)CO)C[C@@H]3O[C@H]1C[C@H](N)[C@H](O)[C@H](C)O1 [Example 37, doxorubicin hydrochloride]		+ (a weight-increasing rate of less than 0.20% is shown by an evaluation criterion that the hygroscopicity is small: (+))
COc1cccc2c1C(=O)c1c(O)c3c(c(O)c1C2=O)C[C@@](O)(C(=O)CO)C[C@@H]3O[C@H]1C[C@H](N)[C@H](O)[C@H](C)O1 [Example 39, doxorubicin hydrochloride]		+ (a weight-increasing rate of less than 0.20% is shown by an evaluation criterion that the hygroscopicity is small: (+))
COc1cccc2c1C(=O)c1c(O)c3c(c(O)c1C2=O)C[C@@](O)(C(=O)CO)C[C@@H]3O[C@H]1C[C@H](N)[C@H](O)[C@H](C)O1 [Example 41, doxorubicin hydrochloride]		+ (a weight-increasing rate of less than 0.20% is shown by an evaluation criterion that the hygroscopicity is small: (+))
COc1cccc2c1C(=O)c1c(O)c3c(c(O)c1C2=O)C[C@@](O)(C(=O)CO)C[C@@H]3O[C@H]1C[C@H](N)[C@H](O)[C@H](C)O1 [Example 43, doxorubicin hydrochloride]		+ (a weight-increasing rate of less than 0.20% is shown by an evaluation criterion that the hygroscopicity is small: (+))
COc1cccc2c1C(=O)c1c(O)c3c(c(O)c1C2=O)C[C@@](O)(C(=O)CO)C[C@@H]3O[C@H]1C[C@H](N)[C@H](O)[C@H](C)O1 [Example 50, doxorubicin hydrochloride]		+ (a weight-increasing rate of less than 0.20% is shown by an evaluation criterion that the hygroscopicity is small: (+))
COc1cccc2c1C(=O)c1c(O)c3c(c(O)c1C2=O)C[C@@](O)(C(=O)CO)C[C@@H]3O[C@H]1C[C@H](N)[C@H](O)[C@H](C)O1 [Example 52, doxorubicin hydrochloride]		+ (a weight-increasing rate of less than 0.20% is shown by an evaluation criterion that the hygroscopicity is small: (+))
COc1cccc2c1C(=O)c1c(O)c3c(c(O)c1C2=O)C[C@@](O)(C(=O)CO)C[C@@H]3O[C@H]1C[C@H](N)[C@H](O)[C@H](C)O1 [Example 53, doxorubicin hydrochloride]		+ (a weight-increasing rate of less than 0.20% is shown by an evaluation criterion that the hygroscopicity is small: (+))
COc1cccc2c1C(=O)c1c(O)c3c(c(O)c1C2=O)C[C@@](O)(C(=O)CO)C[C@@H]3O[C@H]1C[C@H](N)[C@H](O)[C@H](C)O1 [Example 54, doxorubicin hydrochloride]		+ (a weight-increasing rate of less than 0.20% is shown by an evaluation criterion that the hygroscopicity is small: (+))

More lines, main results first:

Average particle diameter [2] [μm]	Compound	Hygroscopicity [1]
39	COc1cccc2c1C(=O)c1c(O)c3c(c(O)c1C2=O)C[C@@](O)(C(=O)CO)C[C@@H]3O[C@H]1C[C@H](N)[C@H](O)[C@H](C)O1 [Example 23, doxorubicin hydrochloride]	± (a weight-increasing rate of 0.20% or more and less than 0.40% is shown by an evaluation criterion that the hygroscopicity is ;intermediate (±))
51	COc1cccc2c1C(=O)c1c(O)c3c(c(O)c1C2=O)C[C@@](O)(C(=O)CO)C[C@@H]3O[C@H]1C[C@H](N)[C@H](O)[C@H](C)O1 [Example 24, doxorubicin hydrochloride]	+ (a weight-increasing rate of less than 0.20% is shown by an evaluation criterion that the hygroscopicity is small: (+))
37	COc1cccc2c1C(=O)c1c(O)c3c(c(O)c1C2=O)C[C@@](O)(C(=O)CO)C[C@@H]3O[C@H]1C[C@H](N)[C@H](O)[C@H](C)O1 [Example 28, doxorubicin hydrochloride]	+ (a weight-increasing rate of less than 0.20% is shown by an evaluation criterion that the hygroscopicity is small: (+))
39	COc1cccc2c1C(=O)c1c(O)c3c(c(O)c1C2=O)C[C@@](O)(C(=O)CO)C[C@@H]3O[C@H]1C[C@H](N)[C@H](O)[C@H](C)O1 [Example 30, doxorubicin hydrochloride]	+ (a weight-increasing rate of less than 0.20% is shown by an evaluation criterion that the hygroscopicity is small: (+))
34	COc1cccc2c1C(=O)c1c(O)c3c(c(O)c1C2=O)C[C@@](O)(C(=O)CO)C[C@@H]3O[C@H]1C[C@H](N)[C@H](O)[C@H](C)O1 [Example 32, doxorubicin hydrochloride]	+ (a weight-increasing rate of less than 0.20% is shown by an evaluation criterion that the hygroscopicity is small: (+))
25	COc1cccc2c1C(=O)c1c(O)c3c(c(O)c1C2=O)C[C@@](O)(C(=O)CO)C[C@@H]3O[C@H]1C[C@H](N)[C@H](O)[C@H](C)O1 [Example 33, doxorubicin hydrochloride]	± (a weight-increasing rate of 0.20% or more and less than 0.40% is shown by an evaluation criterion that the hygroscopicity is ;intermediate (±))
23	COc1cccc2c1C(=O)c1c(O)c3c(c(O)c1C2=O)C[C@@](O)(C(=O)CO)C[C@@H]3O[C@H]1C[C@H](N)[C@H](O)[C@H](C)O1 [Example 34, doxorubicin hydrochloride]	± (a weight-increasing rate of 0.20% or more and less than 0.40% is shown by an evaluation criterion that the hygroscopicity is ;intermediate (±))
20	COc1cccc2c1C(=O)c1c(O)c3c(c(O)c1C2=O)C[C@@](O)(C(=O)CO)C[C@@H]3O[C@H]1C[C@H](N)[C@H](O)[C@H](C)O1 [Example 35, doxorubicin hydrochloride]	± (a weight-increasing rate of 0.20% or more and less than 0.40% is shown by an evaluation criterion that the hygroscopicity is ;intermediate (±))
